Source: patent publication US20260199309A1, “COMPOUNDS FOR THE TREATMENT OF CENTRA NERVOUS SYSTEM DISORDERS” (Autifony Therapeutics Limited, priority 2022, published 2026)

Experiments:
[1] = target: CYP2C9 (Homo sapiens, UniProt P11712); assay: CYP450 inhibition, pro-fluorescent probe substrate (2C9/FCA); type: in vitro ADME; settings: recombinant human CYP450, substrate FCA; top concentration 5.00E-05
[2] = target: T1, CYP3A4 (Homo sapiens, UniProt P08684); assay: CYP450 inhibition, Vivid Baculosomes (3A4/DBOMF); type: in vitro ADME; settings: substrate DBOMF, top concentration 5.00E-05, read-out: CYP3A4DBOMF
T1 construct: purchased
From the text: The method uses recombinant human CYP450 to metabolize pro-fluorescent probe substrates to fluorescent products. IC50 values for the effect of test compounds on the metabolism of these probe substrates provides a measure of the potency of inhibition of individual CYP450 isoforms.
The described assays measure in vitro inhibitory effects (pIC50) of compounds at the human P450 isoforms (1A2, 2C8, 2C9, 2C19, 2D6, 3A4) expressed in recombinant microsomes. Pro-fluorescent probe substrates are metabolized to fluorescent products by the enzymes.
Fluorescence is measured in kinetic mode (1 read/min for 10 min) and the fluorescence rate is calculated. Data are normalized to controls: DMSO represents 0% effect (i.e. no inhibition), while 10 μM Miconazole is set to 100% effect (i.e. complete inhibition).
Inhibition of the fluorescent signal determined by P450 […] indicates antagonist activity of the compound and allows for the calculation of the compound plC50.
CRCs of compounds are run on two different test occasions (n=2) by preparing serial dilutions from the same compound stock solution. Details of the solutions are outlined in Table 6:
Test compound serial dilutions 1 to 3 were performed from a 10 mM stock solution in DMSO by Biomek FX to generate 10 point CRC. 100% DMSO was used for assay low controls. 10 mM (2 mM for 3A4/DBOMF, 2C8/DBOMF assay only) miconazole solution in DMSO was used as assay high controls. The final concentrations of the 10 point CRCs of test compounds in the assay plate were 5.00E-05; 1.67E-05; 5.56E-06; 1.85E-06; 6.17E-07; 2.06E-07; 6.86E-08; 2.29E-08; 7.62E-09 and 2.54E-09, respectively.
The CYP3A4 and CYP2C8 were assayed using the Vivid CYP3A4 Baculosomes, CYP2C8 Baculosomes and Vivid DBOMF Substrate. […]
10 μl/well from compound plate was added and incubated for 10 min at 37° C. on a plate shaker. […] The plate was transferred into the fluorescent plate reader (EnVision, Wallac) immediately within 2 min and monitor fluorescence every minute for 10 (Excitation 485, Emission 535 and Mirror 505 FITC). […]
The inhibition effect was expressed as percentage. […]

[3] = In vitro metabolic stability (CLint), rat; type: in vitro ADME; settings: intrinsic clearance, incubation 0-30 minutes at 37° C. with NADPH regenerating system
Method: The objective of this study was to determine metabolic stability of test items in preclinical species and human liver microsomes. Verapamil and dextromethorphan were used as positive controls for microsomal incubation.
Incubation medium was prepared by combining 11.2 mL of potassium phosphate monobasic and 38.8 mL of potassium phosphate dibasic, diluted to 1 L with water. Cryopreserved microsomes were thawed and kept on ice until use. Microsomes were then diluted in incubation to a protein concentration of 0.56 mg/mL. Cells were centrifuged, re-suspended in medium and counted by means of a haemocytometer. Cell viability was measured using the Trypan Blue exclusion test.
NADPH regenerating system solution was prepared by dissolving 1.7 mg of NADP, 7.8 mg of G6P and 6 units of G6P-Dehydrogenase in 1 mL of 2% sodium bicarbonate solution (prepared by dissolving 20 g of NaHCO3 in 1 L of water).
Test compounds were separately dissolved in DMF to obtain 10 mM stock solutions that were further diluted in water/acetonitrile 50/50 (v/v) to obtain the corresponding 50 uM working solutions. Verapamil and dextromethorphan were dissolved in DMF in order to obtain a 10 mM verapamil solution and 10 mM dextromethorphan solution. These solutions were then diluted in the incubation medium in order to obtain a 50 uM verapamil working solution and a 50 uM dextromethorphan working solution.
800 μL-aliquots of NADPH regenerating system were pre-warmed at 37° C. for 5 minutes. […]
Metabolic stability was calculated from the peak area ratio of the remaining test compound with internal standard versus time. The intrinsic clearance (CLint) was determined from the first order elimination constant k (min^−1) (obtained from GraphPad by plotting the natural logarithm of the peak area ratio of the remaining test item with internal standard versus time), using the actual volume of the incubation V (mL), the amount of hepatocytes in the incubation M (million cells) and the hepatocellularity number per g liver Hn (120 for human).

[4] = target: CYP2C19 (Homo sapiens, UniProt P33261); assay: CYP450 inhibition, pro-fluorescent probe substrate (2C19/BMC); type: in vitro ADME; settings: recombinant human CYP450, substrate BMC; top concentration 5.00E-05
[5] = target: T1, CYP3A4; assay: CYP450 inhibition, pro-fluorescent probe substrate (3A4/7BQ); type: in vitro ADME; settings: recombinant human CYP450, substrate 7-BQ; top concentration 5.00E-05; read-out: CYP3A47BQ
[6] = target: CYP1A2 (Homo sapiens, UniProt P05177); assay: CYP450 inhibition, pro-fluorescent probe substrate (1A2/ER)
CYP1A2, sequence (P05177 whole entry): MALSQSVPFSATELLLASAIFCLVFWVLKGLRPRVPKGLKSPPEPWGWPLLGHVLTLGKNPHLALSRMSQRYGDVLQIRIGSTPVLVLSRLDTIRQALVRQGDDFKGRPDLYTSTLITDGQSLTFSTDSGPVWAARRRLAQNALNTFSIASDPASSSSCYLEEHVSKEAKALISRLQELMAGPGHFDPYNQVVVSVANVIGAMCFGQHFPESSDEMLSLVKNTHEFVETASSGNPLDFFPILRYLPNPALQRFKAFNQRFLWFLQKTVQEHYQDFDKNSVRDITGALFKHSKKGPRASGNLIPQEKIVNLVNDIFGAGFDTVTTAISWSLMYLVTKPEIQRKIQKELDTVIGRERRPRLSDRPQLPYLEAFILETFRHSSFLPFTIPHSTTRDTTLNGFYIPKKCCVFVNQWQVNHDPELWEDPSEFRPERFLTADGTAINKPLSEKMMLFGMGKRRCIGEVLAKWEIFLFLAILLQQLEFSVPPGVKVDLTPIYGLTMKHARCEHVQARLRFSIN

T1 sequence (P08684 whole entry): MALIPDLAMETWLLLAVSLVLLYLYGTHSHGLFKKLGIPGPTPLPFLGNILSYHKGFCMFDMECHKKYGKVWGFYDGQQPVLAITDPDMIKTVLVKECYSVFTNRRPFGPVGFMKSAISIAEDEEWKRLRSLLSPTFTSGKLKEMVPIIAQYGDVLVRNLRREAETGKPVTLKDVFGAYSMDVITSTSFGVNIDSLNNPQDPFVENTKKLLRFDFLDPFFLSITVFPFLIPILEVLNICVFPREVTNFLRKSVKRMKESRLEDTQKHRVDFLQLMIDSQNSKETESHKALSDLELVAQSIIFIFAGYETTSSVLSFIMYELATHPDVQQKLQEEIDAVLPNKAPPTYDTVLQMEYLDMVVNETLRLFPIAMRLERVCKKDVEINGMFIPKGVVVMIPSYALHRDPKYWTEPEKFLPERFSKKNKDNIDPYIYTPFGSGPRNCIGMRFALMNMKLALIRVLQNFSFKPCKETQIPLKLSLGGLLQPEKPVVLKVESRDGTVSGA
CYP2C19, sequence (P33261 whole entry): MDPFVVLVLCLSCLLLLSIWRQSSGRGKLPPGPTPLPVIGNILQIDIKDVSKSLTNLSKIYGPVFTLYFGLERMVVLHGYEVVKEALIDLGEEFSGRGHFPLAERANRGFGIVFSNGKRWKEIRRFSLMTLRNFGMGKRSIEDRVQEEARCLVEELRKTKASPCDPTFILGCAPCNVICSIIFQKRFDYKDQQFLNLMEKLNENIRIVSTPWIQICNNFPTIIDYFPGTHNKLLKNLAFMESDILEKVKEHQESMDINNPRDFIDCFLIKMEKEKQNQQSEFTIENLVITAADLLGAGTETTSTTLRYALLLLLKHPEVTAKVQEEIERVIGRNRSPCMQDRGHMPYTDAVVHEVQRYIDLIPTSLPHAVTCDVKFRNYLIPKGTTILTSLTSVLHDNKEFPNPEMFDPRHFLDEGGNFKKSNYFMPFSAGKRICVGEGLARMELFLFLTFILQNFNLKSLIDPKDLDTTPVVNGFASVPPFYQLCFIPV
CYP2C9, sequence (P11712 whole entry): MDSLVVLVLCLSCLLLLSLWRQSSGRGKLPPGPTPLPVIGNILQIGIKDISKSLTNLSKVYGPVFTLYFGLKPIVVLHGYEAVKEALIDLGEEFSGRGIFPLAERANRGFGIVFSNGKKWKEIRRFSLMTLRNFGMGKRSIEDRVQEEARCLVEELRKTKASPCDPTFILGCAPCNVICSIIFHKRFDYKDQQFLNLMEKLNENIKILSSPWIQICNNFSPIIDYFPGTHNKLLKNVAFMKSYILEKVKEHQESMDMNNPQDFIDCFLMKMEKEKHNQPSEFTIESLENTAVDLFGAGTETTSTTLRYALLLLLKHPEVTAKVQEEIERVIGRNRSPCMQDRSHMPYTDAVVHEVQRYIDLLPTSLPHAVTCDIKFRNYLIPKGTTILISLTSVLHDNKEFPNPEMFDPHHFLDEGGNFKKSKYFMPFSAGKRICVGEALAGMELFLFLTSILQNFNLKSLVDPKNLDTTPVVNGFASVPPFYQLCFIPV

Compound	IC50 [1] [µM]	IC50 [2] [µM]	CLi rat [3] [mL/min/g liver]	IC50 [4] [µM]	IC50 [5] [µM]	IC50 [6] [µM]
Cc1ccc(Oc2ccc(N3C(=O)NC(C)(C)C3=O)c(N)n2)c2c1OCC21CC1 [Example 1, 3-[2-amino-6-(7-methylspiro[2H-benzofuran-3,1′-cyclopropane]-4-yl)oxy-3-pyridyl]-5,5-dimethyl-imidazolidine-2,4-dione]	8.6	> 50	5.4	> 50	> 50	> 50
CC1(C)NC(=O)N(c2ccc(Oc3cccc(OC(F)(F)F)c3)nc2N)C1=O [Example 9, 3-[2-amino-6-[3-(trifluoromethoxy)phenoxy]-3-pyridyl]-5,5-dimethyl-imidazolidine-2,4-dione]	> 50	> 50	<0.5	21	> 50	> 50
COc1nc(Oc2ccc(C)c3c2C2(CC2)CO3)ccc1N1C(=O)NC(C)(C)C1=O [Reference Example 2, reference compound]	0.1	10.2	8.7	1.1	> 50	> 50
